Results from patent US20240245793A1, “PSD-95 INHIBITORS AND USES THEREOF” (priority 2021, published 2024).
Where two headings read alike, the source gives them in different places. No end group written: not given here.

What was measured:
[1] = tested on: pMCAO mice; details: cited from earlier work; for neuroprotective properties: mice, pMCAO, same experimental conditions and dose (3 nmol/g)
[2] = molecular target: T1, plasmin (Homo sapiens, UniProt P00747); experiment: In vitro plasmin stability assay; type: in vitro ADME
T1 construct: Tissue plasminogen factor (tPA), which generates plasmin from plasminogen
Experimental: (§1) At selected time points during the incubation, the ligands were extracted from 80 μL of assay matrix by treatment with 80 μL of 50% acetonitrile (ACN). The samples were filtered and analysed by UPLC to determine the amount of ligand remaining. LC-MS analysis was performed to confirm ligand integrity and identify cleavage sites.

[3] = In vitro plasma stability in undiluted pooled human plasma; type: in vitro ADME; details: for T1/2: 100 μM ligand, 37° C., mean ± SEM (Table 13, FIG. 10); for half-life at 100 μM: human
Experimental: as §1, with “the” for “80 μL of”, “adding assay matrix to 6M Urea followed by precipitation using 20% TCA in acetone. After overnight incubation, the” for “treatment with 80 μL of 50% acetonitrile (ACN). The”

[4] = molecular target: PDZ1-2 of PSD-95 (Homo sapiens, UniProt P78352); experiment: Fluorescence polarization (FP) competition assay, affinity to PDZ1-2 of PSD-95; type: binding; details: mean ± SEM
Experimental: First, a saturation binding curve was obtained to determine KD values for the interaction between a fluorescent dimeric probe and PDZ1-2 of PSD-95. Increasing concentrations of PDZ1-2 (0.015-30 nM) were added to a constant concentration of the probe (0.5 nM). The fluorescence polarization (FP) of the sample was measured at excitation/emission wavelength of 635/670 nm and the generated FP values were fitted to a one site binding model using the software GraphPad Prism. […] The FP values were fitted to a one site competition (variable slope) model in GraphPad prism. The resulting IC50 values were converted to Ki values as described previously by Nikolovska-Coleska et al., Anal. Biochem., 2004, 332, 261).

[5] = molecular target: PDZ1 and PDZ2 of PSD-95; details: in vitro FP assay; read-out: Ki values towards PDZ1 and PDZ2 of PSD-95; cited from earlier work
[6] = tested on: patients with ischemic stroke undergoing endovascular thrombectomy; details: cited from earlier work
[7] = molecular target: T1, plasmin; details: plasmin generated by tPA; cited from earlier work
[8] = dimeric ligands fused to L-TAT and L-Arg9, n ≥ 3 (Table 5, FIG. 2)
[9] = isolated enzyme plasmin, read-out: T1/2
[10] = NPEG4-(KETLV)2 fused to polyArg CPP-tags, n ≥ 3 (Table 7, FIG. 4)

T1 sequence (P00747 581-810 limits assumed, species assumed): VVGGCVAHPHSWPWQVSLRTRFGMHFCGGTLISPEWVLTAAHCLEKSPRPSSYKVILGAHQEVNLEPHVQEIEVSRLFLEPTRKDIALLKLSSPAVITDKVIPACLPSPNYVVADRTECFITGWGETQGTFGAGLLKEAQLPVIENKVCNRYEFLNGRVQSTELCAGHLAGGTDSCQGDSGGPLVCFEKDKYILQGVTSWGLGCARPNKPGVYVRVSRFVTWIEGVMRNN
T1 sequence (P00747 97-580 partner limits assumed, species assumed): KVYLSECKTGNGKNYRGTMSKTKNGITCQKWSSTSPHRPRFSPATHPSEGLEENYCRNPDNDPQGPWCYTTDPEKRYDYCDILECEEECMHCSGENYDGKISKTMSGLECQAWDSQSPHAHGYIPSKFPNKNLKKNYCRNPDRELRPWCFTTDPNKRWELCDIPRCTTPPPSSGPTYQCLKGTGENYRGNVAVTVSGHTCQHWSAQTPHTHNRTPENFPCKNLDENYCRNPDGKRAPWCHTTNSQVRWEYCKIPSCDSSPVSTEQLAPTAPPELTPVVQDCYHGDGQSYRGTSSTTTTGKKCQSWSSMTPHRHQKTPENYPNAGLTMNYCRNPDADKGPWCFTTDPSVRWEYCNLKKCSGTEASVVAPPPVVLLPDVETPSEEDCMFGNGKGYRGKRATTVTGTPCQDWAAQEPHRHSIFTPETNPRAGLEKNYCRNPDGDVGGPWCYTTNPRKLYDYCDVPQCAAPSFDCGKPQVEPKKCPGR
Chain of PDZ1-2 of PSD-95 (P78352 61-249 limits assumed): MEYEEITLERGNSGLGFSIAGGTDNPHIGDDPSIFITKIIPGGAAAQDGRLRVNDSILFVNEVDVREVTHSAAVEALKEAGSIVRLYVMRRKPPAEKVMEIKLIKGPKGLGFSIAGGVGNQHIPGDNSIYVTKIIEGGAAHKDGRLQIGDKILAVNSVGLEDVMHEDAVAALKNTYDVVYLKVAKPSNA

## CC[C@H](C)[C@H](NC(=O)CCOCCOCCOCCOCCOCCC(=O)N[C@H](C(=O)N[C@@H](CCC(=O)O)C(=O)N[C@H](C(=O)N[C@@H](CC(=O)O)C(=O)N[C@H](C(=O)O)C(C)C)[C@@H](C)O)[C@@H](C)CC)C(=O)N[C@@H](CCC(=O)O)C(=O)N[C@H](C(=O)N[C@@H](CC(=O)O)C(=O)N[C@H](C(=O)O)C(C)C)[C@@H](C)O [Compound 1, OPEG4-(IETDV)2]
[1]
  neuroprotective properties: showed no neuroprotective properties
[1]; mouse, in vivo
  reaching the brain: did not reach the brain

## CC[C@H](C)[C@H](NC(=O)CCOCCOCCN(CCOCCOCCC(=O)N[C@H](C(=O)N[C@@H](CCC(=O)O)C(=O)N[C@H](C(=O)N[C@@H](CC(=O)O)C(=O)N[C@H](C(=O)O)C(C)C)[C@@H](C)O)[C@@H](C)CC)C(=O)[C@H](CCCNC(=N)N)NC(=O)[C@H](CCCNC(=N)N)NC(=O)[C@H](CCCNC(=N)N)NC(=O)[C@H](CCC(N)=O)NC(=O)[C@H](CCCNC(=N)N)NC(=O)[C@H](CCCNC(=N)N)NC(=O)[C@H](CCCCN)NC(=O)[C@H](CCCCN)NC(=O)[C@H](CCCNC(=N)N)NC(=O)CNC(=O)[C@@H](N)Cc1ccc(O)cc1)C(=O)N[C@@H](CCC(=O)O)C(=O)N[C@H](C(=O)N[C@@H](CC(=O)O)C(=O)N[C@H](C(=O)O)C(C)C)[C@@H](C)O [Compound 8, L-TAT-NPEG4(IETDV)2, reference compound]
[2]; plasmin (5 μg/mL) in PBS, read-out: T1/2
  half-life at 100 μM: 9.05 ± 1 h
[3]
  T1/2: 24 ± 0 h

## CC(=O)N[C@@H](Cc1ccc(O)cc1)C(=O)NCC(=O)N[C@@H](CCCNC(=N)N)C(=O)N[C@@H](CCCCN)C(=O)N[C@@H](CCCCN)C(=O)N[C@@H](CCCNC(=N)N)C(=O)N[C@@H](CCCNC(=N)N)C(=O)N[C@@H](CCC(N)=O)C(=O)N[C@@H](CCCNC(=N)N)C(=O)N[C@@H](CCCNC(=N)N)C(=O)N[C@@H](CCCNC(=N)N)C(=O)N(CCOCCOCCC(=O)N[C@@H](CCCCN)C(=O)N[C@@H](CCC(=O)O)C(=O)N[C@H](C(=O)N[C@@H](CCCNC(=N)N)C(=O)N[C@H](C(=O)O)C(C)C)[C@@H](C)O)CCOCCOCCC(=O)N[C@@H](CCCCN)C(=O)N[C@@H](CCC(=O)O)C(=O)N[C@H](C(=O)N[C@@H](CCCNC(=N)N)C(=O)N[C@H](C(=O)O)C(C)C)[C@@H](C)O [Compound 17]
[4]; [8]
  Ki: 0.0066 ± 0.0006 µM
[2]; [9]
  half-life: 6.42 ± 2.17 h

## CC[C@H](C)[C@H](NC(=O)CCOCCOCCN(CCOCCOCCC(=O)N[C@H](C(=O)N[C@@H](CO)C(=O)N[C@H](C(=O)N[C@@H](CC(=O)O)C(=O)N[C@H](C(=O)O)C(C)C)[C@@H](C)O)[C@@H](C)CC)C(=O)[C@H](CCCNC(=N)N)NC(=O)[C@H](CCCNC(=N)N)NC(=O)[C@H](CCCNC(=N)N)NC(=O)[C@H](CCC(N)=O)NC(=O)[C@H](CCCNC(=N)N)NC(=O)[C@H](CCCNC(=N)N)NC(=O)[C@H](CCCCN)NC(=O)[C@H](CCCCN)NC(=O)[C@H](CCCNC(=N)N)NC(=O)CNC(=O)[C@H](Cc1ccc(O)cc1)NC(C)=O)C(=O)N[C@@H](CO)C(=O)N[C@H](C(=O)N[C@@H](CC(=O)O)C(=O)N[C@H](C(=O)O)C(C)C)[C@@H](C)O [Compound 19]
[4]; [8]
  Ki: 0.0361 ± 0.0018 µM
[2]; [9]
  half-life: 8.9 ± 0.667 h

## CC(=O)N[C@@H](Cc1ccc(O)cc1)C(=O)NCC(=O)N[C@@H](CCCNC(=N)N)C(=O)N[C@@H](CCCCN)C(=O)N[C@@H](CCCCN)C(=O)N[C@@H](CCCNC(=N)N)C(=O)N[C@@H](CCCNC(=N)N)C(=O)N[C@@H](CCC(N)=O)C(=O)N[C@@H](CCCNC(=N)N)C(=O)N[C@@H](CCCNC(=N)N)C(=O)N[C@@H](CCCNC(=N)N)C(=O)N(CCOCCOCCC(=O)N[C@H](C(=O)N[C@@H](CCC(=O)O)C(=O)N[C@H](C(=O)N[C@H](C(=O)N[C@H](C(=O)O)C(C)C)C(C)C)[C@@H](C)O)C(C)C)CCOCCOCCC(=O)N[C@H](C(=O)N[C@@H](CCC(=O)O)C(=O)N[C@H](C(=O)N[C@H](C(=O)N[C@H](C(=O)O)C(C)C)C(C)C)[C@@H](C)O)C(C)C [Compound 21]
[4]; [8]
  Ki: 0.0158 ± 0.0016 µM
[2]; [9]
  half-life: 8.87 ± 0.683 h

## CC(=O)N[C@@H](CCCNC(=N)N)C(=O)N[C@@H](CCCNC(=N)N)C(=O)N[C@@H](CCCNC(=N)N)C(=O)N[C@@H](CCCNC(=N)N)C(=O)N[C@@H](CCCNC(=N)N)C(=O)N[C@@H](CCCNC(=N)N)C(=O)N[C@@H](CCCNC(=N)N)C(=O)N[C@@H](CCCNC(=N)N)C(=O)N[C@@H](CCCNC(=N)N)C(=O)N(CCOCCOCCC(=O)N[C@@H](CCCCN)C(=O)N[C@@H](CCC(=O)O)C(=O)N[C@H](C(=O)N[C@@H](CC(C)C)C(=O)N[C@H](C(=O)O)C(C)C)[C@@H](C)O)CCOCCOCCC(=O)N[C@@H](CCCCN)C(=O)N[C@@H](CCC(=O)O)C(=O)N[C@H](C(=O)N[C@@H](CC(C)C)C(=O)N[C@H](C(=O)O)C(C)C)[C@@H](C)O [Compound 23]
[2]; isolated enzyme plasmin
  half-life at 100 μM: 43.6 ± 4.6 h
[3]
  T1/2: 24 ± 0 h

## CC[C@H](C)[C@H](NC(=O)CCOCCOCCN(CCOCCOCCC(=O)N[C@H](C(=O)N[C@@H](CCC(=O)O)C(=O)N[C@H](C(=O)N[C@@H](CC(=O)O)C(=O)N[C@H](C(=O)O)C(C)C)[C@@H](C)O)[C@@H](C)CC)C(=O)[C@H](CCCNC(=N)N)NC(=O)[C@H](CCCNC(=N)N)NC(=O)[C@H](CCCNC(=N)N)NC(=O)[C@H](CCCNC(=N)N)NC(=O)[C@H](CCCNC(=N)N)NC(=O)[C@H](CCCNC(=N)N)NC(=O)[C@H](CCCNC(=N)N)NC(=O)[C@H](CCCNC(=N)N)NC(=O)[C@H](CCCNC(=N)N)NC(C)=O)C(=O)N[C@@H](CCC(=O)O)C(=O)N[C@H](C(=O)N[C@@H](CC(=O)O)C(=O)N[C@H](C(=O)O)C(C)C)[C@@H](C)O [Compound 35]
[2]
  half-life at 100 μM: 24.9 ± 1.9 h
[2]; isolated enzyme plasmin
  half-life at 100 μM: 24.9 ± 1.9 h
[3]
  T1/2: 24 ± 0 h

## CC(=O)N[C@@H](CCCNC(=N)N)C(=O)N[C@@H](CCCNC(=N)N)C(=O)N[C@@H](CCCNC(=N)N)C(=O)N[C@@H](CCCNC(=N)N)C(=O)N[C@@H](CCCNC(=N)N)C(=O)N[C@@H](CCCNC(=N)N)C(=O)N[C@@H](CCCNC(=N)N)C(=O)N(CCOCCOCCC(=O)N[C@@H](CCCCN)C(=O)N[C@@H](CCC(=O)O)C(=O)N[C@H](C(=O)N[C@@H](CC(C)C)C(=O)N[C@H](C(=O)O)C(C)C)[C@@H](C)O)CCOCCOCCC(=O)N[C@@H](CCCCN)C(=O)N[C@@H](CCC(=O)O)C(=O)N[C@H](C(=O)N[C@@H](CC(C)C)C(=O)N[C@H](C(=O)O)C(C)C)[C@@H](C)O [Compound 67]
[3]
  T1/2: 24 ± 0 h

## CC(=O)N[C@@H](CCCNC(=N)N)C(=O)N[C@@H](CCCNC(=N)N)C(=O)N[C@@H](CCCNC(=N)N)C(=O)N[C@@H](CCCNC(=N)N)C(=O)N[C@@H](CCCNC(=N)N)C(=O)N[C@@H](CCCNC(=N)N)C(=O)N(CCOCCOCCC(=O)N[C@@H](CCCCN)C(=O)N[C@@H](CCC(=O)O)C(=O)N[C@H](C(=O)N[C@@H](CC(C)C)C(=O)N[C@H](C(=O)O)C(C)C)[C@@H](C)O)CCOCCOCCC(=O)N[C@@H](CCCCN)C(=O)N[C@@H](CCC(=O)O)C(=O)N[C@H](C(=O)N[C@@H](CC(C)C)C(=O)N[C@H](C(=O)O)C(C)C)[C@@H](C)O [Compound 69]
[4]; [10]
  Ki: 0.0086 ± 0.0003 µM
[3]
  T1/2: 24 ± 0 h

## CC(=O)N[C@@H](CCCNC(=N)N)C(=O)N[C@@H](CCCNC(=N)N)C(=O)N[C@@H](CCCNC(=N)N)C(=O)N[C@@H](CCCNC(=N)N)C(=O)N[C@@H](CCCNC(=N)N)C(=O)N(CCOCCOCCC(=O)N[C@@H](CCCCN)C(=O)N[C@@H](CCC(=O)O)C(=O)N[C@H](C(=O)N[C@@H](CC(C)C)C(=O)N[C@H](C(=O)O)C(C)C)[C@@H](C)O)CCOCCOCCC(=O)N[C@@H](CCCCN)C(=O)N[C@@H](CCC(=O)O)C(=O)N[C@H](C(=O)N[C@@H](CC(C)C)C(=O)N[C@H](C(=O)O)C(C)C)[C@@H](C)O [Compound 71]
[3]
  half-life at 100 μM: 21.1 ± 2.3 h

## CC(=O)N[C@@H](CCCNC(=N)N)C(=O)N[C@@H](CCCNC(=N)N)C(=O)N[C@@H](CCCNC(=N)N)C(=O)N[C@@H](CCCNC(=N)N)C(=O)N(CCOCCOCCC(=O)N[C@@H](CCCCN)C(=O)N[C@@H](CCC(=O)O)C(=O)N[C@H](C(=O)N[C@@H](CC(C)C)C(=O)N[C@H](C(=O)O)C(C)C)[C@@H](C)O)CCOCCOCCC(=O)N[C@@H](CCCCN)C(=O)N[C@@H](CCC(=O)O)C(=O)N[C@H](C(=O)N[C@@H](CC(C)C)C(=O)N[C@H](C(=O)O)C(C)C)[C@@H](C)O [Compound 73]
[4]; [10]
  Ki: 0.0111 ± 0.0009 µM
[3]
  half-life at 100 μM: 15.2 ± 3.6 h

## YGRKKRRQRRRKLSSIESDV [nerinetide]
[5]
  Ki: 5 to 10 µM
[6]; group not receiving alteplase
  clinical effect: improved functional outcomes, reduced mortality, and reduced infarction volumes
[6]; patients receiving alteplase
  clinical effect: not effective
[7]
  cleavage by plasmin: cleaves nerinetide
[1]
  neuroprotective properties: did not show significant neuroprotective properties
